For test [1], the target named is T1, Ubiquitin-conjugating enzyme E2 N (Homo sapiens, UniProt P61088).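 Further: Dose-response confirmation in a TR-FRET assay detecting UBC13-driven polyubiquitin chain formation, inhibition measured.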
T1 sequence (P61088 whole entry): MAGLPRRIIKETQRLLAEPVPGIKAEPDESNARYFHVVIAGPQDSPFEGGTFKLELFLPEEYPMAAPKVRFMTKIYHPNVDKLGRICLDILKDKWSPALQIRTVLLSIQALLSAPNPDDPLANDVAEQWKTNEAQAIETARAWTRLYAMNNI
It is filed as functional.

For a further test, the target named is Cytochrome P450 3A4 (Homo sapiens, UniProt P08684). To be noted: Potency.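 Further: confirmatory qHTS run detecting inhibitors and substrates of CYP3A4.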
Chain of Cytochrome P450 3A4 (P08684 whole entry): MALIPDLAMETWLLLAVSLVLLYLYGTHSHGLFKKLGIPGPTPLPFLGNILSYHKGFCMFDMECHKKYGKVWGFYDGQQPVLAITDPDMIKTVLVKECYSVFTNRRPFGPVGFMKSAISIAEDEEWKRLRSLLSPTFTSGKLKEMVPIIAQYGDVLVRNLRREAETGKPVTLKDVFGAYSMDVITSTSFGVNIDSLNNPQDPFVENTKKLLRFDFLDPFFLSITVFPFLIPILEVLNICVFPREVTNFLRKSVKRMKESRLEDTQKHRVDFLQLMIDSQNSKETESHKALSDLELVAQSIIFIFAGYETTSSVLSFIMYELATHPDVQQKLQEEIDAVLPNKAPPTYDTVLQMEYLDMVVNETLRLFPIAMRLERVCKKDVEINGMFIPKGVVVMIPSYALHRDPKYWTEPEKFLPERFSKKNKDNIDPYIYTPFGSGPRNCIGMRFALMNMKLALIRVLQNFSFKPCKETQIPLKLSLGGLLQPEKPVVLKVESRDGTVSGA
Test [2] addresses T2, Voltage-gated N-type calcium channel alpha-1B subunit/Amyloid beta A4 precursor protein-binding family A member 1 (Homo sapiens, UniProt Q00975+Q02410). Type of test: protein assay.
The target in test [3] is T2, Voltage-gated N-type calcium channel alpha-1B subunit/Amyloid beta A4 precursor protein-binding family A member 1. It is filed as protein assay. The source holds these as a separate data set.
The target in test [4] is Glyceraldehyde-3-phosphate dehydrogenase (Homo sapiens, UniProt P04406).
Chain of Glyceraldehyde-3-phosphate dehydrogenase (P04406 whole entry): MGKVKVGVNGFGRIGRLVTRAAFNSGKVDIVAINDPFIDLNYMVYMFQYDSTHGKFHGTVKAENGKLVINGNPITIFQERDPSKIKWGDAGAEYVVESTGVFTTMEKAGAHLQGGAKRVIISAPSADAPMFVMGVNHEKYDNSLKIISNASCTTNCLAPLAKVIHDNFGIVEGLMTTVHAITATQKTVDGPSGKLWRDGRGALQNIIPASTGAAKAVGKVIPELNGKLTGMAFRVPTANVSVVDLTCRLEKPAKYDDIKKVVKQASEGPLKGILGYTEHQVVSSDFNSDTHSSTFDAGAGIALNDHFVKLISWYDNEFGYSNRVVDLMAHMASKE
The nature of test [5]: HEp-2 cell cytotoxicity, dose response, cytotoxicity control for RSV inhibitor project, HTS (AID 2410). The settings on record: human respiratory syncytial virus. Type of test: functional.
A further test concerns the target T3, Leucine aminopeptidase (Plasmodium falciparum 3D7, UniProt Q8IL11).
T3 sequence (Q8IL11 whole entry): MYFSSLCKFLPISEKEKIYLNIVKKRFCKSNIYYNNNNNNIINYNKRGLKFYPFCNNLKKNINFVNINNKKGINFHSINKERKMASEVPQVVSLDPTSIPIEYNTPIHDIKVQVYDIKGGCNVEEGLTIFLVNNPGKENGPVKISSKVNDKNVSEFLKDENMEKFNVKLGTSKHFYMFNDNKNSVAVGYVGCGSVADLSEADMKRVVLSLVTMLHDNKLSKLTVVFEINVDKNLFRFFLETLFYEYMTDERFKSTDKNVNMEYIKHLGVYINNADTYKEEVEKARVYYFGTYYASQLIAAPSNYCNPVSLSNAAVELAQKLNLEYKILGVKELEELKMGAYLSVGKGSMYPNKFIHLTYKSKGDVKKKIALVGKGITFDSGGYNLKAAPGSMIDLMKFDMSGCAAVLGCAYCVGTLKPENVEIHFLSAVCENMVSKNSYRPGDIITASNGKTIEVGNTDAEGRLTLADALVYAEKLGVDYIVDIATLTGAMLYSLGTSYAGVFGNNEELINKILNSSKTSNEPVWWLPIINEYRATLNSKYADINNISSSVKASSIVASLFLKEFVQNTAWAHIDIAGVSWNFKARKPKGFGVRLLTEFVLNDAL
As to the kind of experiment: P. falciparum M17LAP inhibitors, primary screen, biochemical, fluorogenic H-Leu-NHMec substrate, 1536-well (AID 1619). It is filed as functional.

A further test concerns the target T4, Aminopeptidase N (Plasmodium falciparum FcB1/Columbia, UniProt O96935).
T4 sequence (O96935 whole entry): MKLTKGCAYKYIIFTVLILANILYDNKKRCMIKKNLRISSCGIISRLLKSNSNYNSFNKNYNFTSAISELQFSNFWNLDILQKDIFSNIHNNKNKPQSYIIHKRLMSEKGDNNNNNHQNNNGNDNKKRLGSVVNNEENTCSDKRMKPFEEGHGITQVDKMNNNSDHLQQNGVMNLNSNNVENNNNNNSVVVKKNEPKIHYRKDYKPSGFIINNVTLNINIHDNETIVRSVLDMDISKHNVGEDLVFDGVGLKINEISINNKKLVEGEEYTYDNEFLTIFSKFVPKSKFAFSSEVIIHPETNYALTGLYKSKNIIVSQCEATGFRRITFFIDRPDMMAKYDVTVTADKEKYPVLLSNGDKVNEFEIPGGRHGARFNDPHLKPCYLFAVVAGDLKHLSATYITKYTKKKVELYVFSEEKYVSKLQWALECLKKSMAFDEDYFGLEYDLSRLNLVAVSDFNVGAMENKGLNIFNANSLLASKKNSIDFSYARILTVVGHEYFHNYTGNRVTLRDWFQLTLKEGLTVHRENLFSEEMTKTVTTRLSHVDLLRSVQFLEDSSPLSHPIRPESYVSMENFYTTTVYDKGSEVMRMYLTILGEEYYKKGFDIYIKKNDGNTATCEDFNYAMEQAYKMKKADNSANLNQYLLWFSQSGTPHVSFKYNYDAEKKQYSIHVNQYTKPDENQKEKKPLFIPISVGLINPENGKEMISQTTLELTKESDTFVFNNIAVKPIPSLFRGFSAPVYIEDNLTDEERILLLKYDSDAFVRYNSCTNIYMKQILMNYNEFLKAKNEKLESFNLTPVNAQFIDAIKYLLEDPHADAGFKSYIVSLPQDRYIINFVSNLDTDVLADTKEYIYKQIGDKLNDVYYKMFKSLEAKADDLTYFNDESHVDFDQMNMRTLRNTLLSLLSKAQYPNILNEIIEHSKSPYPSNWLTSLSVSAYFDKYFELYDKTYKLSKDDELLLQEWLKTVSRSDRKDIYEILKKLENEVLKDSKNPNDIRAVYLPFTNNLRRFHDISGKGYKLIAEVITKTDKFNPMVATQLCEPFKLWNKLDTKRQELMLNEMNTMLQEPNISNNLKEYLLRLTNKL
As to the kind of experiment: P. falciparum M1AAP inhibitors, biochemical, fluorogenic H-Leu-NHMec substrate, 1536-well (AID 1445). On the set-up: species or system Plasmodium falciparum 3D7, 3D7.

Test [6] has as its system HEK293. As to the kind of experiment: NOD1 signaling inhibitors, primary screen, cell-based, luminescence, uHTS (AID 1578). Type of test: functional. The settings on record: Homo sapiens.
Test [7] concerns HEK293. Nature of the test: cells. Type of test: functional, cell-based. To be noted: Homo sapiens.
Test [8] concerns HEK293. As to the kind of experiment: cells. Type of test: functional, cell-based. To be noted: Homo sapiens. The source holds these as a separate data set.
The target in test [9] is Nucleotide-binding oligomerization domain-containing protein 2 (Homo sapiens, UniProt Q9HC29). Nature of the test: NOD2 signaling inhibitors, cell-based, luminescence, uHTS, HEK293 (AID 1566). It is filed as functional.
Chain of Nucleotide-binding oligomerization domain-containing protein 2 (Q9HC29 whole entry, the tested form may be a part): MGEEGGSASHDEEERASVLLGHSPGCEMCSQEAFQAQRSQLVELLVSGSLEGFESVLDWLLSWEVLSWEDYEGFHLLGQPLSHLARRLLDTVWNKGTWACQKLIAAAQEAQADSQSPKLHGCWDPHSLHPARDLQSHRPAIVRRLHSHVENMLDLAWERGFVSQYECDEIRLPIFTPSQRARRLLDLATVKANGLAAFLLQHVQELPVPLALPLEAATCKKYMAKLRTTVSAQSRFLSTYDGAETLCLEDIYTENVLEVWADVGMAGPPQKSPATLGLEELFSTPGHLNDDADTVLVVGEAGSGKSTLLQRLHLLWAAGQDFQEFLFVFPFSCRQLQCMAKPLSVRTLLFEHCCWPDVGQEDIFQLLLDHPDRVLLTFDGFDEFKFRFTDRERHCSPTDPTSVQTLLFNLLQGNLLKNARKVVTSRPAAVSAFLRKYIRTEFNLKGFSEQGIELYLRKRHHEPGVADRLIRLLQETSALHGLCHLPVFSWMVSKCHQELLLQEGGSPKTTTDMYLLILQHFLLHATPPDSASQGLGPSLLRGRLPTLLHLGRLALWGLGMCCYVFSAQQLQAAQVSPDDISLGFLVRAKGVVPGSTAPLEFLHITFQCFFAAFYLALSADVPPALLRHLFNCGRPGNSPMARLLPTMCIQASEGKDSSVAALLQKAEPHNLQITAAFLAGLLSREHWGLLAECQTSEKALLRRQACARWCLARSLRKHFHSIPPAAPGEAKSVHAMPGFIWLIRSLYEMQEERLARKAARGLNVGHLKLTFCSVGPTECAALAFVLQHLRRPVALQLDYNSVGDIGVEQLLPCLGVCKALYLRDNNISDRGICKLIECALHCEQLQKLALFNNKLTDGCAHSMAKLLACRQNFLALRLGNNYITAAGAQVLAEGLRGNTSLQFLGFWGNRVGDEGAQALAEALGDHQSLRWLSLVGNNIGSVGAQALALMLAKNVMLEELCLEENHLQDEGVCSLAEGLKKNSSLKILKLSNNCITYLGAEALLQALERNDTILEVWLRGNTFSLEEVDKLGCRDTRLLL
For test [10], the system named is HEK293. As to the kind of experiment: NOD2 signaling inhibitors in MDP-stimulated cells, cell-based, uHTS, luminescence (AID 2001). It is filed as functional. The settings on record: Homo sapiens.
For test [11], the system named is HEK293. Nature of the test: cells. To be noted: Homo sapiens. It is filed as functional, cell-based. This is another data set of the same source.
The subject of another test is Vero. Nature of the test: cells. Type of test: functional. The settings on record: Chlorocebus sabaeus.
In test [12] the target is T5, Replicative DNA helicase DnaB (Mycobacterium tuberculosis, UniProt P9WMR3).
T5 sequence (P9WMR3 whole entry): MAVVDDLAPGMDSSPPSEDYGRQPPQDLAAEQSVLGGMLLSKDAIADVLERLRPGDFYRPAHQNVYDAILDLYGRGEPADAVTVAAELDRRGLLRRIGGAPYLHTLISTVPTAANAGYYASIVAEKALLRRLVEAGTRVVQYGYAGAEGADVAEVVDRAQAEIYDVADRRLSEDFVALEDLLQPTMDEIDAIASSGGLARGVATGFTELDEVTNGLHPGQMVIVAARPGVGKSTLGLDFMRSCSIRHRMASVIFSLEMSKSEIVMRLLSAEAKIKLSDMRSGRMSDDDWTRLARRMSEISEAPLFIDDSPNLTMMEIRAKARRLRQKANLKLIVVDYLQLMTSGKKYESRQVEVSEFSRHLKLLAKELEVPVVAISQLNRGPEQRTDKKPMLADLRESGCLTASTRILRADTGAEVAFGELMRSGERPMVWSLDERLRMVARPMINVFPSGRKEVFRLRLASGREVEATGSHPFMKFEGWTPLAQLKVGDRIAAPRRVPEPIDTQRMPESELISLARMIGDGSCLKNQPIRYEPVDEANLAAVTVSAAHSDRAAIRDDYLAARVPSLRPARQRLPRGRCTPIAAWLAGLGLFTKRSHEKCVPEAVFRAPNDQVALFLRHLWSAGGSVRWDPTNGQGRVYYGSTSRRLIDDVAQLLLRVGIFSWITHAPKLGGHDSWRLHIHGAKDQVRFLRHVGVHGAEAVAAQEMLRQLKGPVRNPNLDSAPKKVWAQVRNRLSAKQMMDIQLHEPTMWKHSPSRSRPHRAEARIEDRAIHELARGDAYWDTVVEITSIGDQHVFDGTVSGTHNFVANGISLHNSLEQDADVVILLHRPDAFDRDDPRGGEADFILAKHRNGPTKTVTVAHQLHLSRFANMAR
As to the kind of experiment: DnaB intein splicing inhibitors, dose response, biochemical, cell-free fluorescence (AID 449749). Type of test: functional.

In a further test the target is T6, Protein RecA (Mycobacterium tuberculosis, UniProt P9WHJ3).
T6 sequence (P9WHJ3 whole entry): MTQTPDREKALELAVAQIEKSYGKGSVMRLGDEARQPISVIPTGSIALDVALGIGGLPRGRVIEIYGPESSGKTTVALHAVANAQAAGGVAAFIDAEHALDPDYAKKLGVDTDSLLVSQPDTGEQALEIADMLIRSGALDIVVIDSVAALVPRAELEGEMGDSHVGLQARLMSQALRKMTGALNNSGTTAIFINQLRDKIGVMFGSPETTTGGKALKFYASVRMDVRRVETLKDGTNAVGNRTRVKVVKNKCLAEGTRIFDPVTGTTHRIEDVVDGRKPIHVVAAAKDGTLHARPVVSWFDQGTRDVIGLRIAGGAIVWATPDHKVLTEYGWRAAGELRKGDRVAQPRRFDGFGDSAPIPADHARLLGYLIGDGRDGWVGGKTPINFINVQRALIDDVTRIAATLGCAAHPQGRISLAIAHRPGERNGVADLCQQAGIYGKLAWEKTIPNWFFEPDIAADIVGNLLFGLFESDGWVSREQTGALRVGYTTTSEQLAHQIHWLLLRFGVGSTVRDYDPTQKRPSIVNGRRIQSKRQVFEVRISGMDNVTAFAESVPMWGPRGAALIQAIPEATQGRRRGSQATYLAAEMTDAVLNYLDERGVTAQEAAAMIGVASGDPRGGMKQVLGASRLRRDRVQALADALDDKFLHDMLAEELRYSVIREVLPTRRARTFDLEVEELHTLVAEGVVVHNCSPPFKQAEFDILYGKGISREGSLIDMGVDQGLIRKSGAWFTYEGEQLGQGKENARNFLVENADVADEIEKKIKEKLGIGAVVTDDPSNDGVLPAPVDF
As to the kind of experiment: Fluorescence Cell-Free Homogeneous Dose Retest to Identify Inhibitors of RecA-Intein Splicing Activity. [Related pubchem assays (depositor defined):AID2097, AID2223, AID489010, AID492950]. It is filed as functional.

Each structure is given as a SMILES string. Active and inactive are the calls of the source.

T2 sequence (Q00975 whole entry): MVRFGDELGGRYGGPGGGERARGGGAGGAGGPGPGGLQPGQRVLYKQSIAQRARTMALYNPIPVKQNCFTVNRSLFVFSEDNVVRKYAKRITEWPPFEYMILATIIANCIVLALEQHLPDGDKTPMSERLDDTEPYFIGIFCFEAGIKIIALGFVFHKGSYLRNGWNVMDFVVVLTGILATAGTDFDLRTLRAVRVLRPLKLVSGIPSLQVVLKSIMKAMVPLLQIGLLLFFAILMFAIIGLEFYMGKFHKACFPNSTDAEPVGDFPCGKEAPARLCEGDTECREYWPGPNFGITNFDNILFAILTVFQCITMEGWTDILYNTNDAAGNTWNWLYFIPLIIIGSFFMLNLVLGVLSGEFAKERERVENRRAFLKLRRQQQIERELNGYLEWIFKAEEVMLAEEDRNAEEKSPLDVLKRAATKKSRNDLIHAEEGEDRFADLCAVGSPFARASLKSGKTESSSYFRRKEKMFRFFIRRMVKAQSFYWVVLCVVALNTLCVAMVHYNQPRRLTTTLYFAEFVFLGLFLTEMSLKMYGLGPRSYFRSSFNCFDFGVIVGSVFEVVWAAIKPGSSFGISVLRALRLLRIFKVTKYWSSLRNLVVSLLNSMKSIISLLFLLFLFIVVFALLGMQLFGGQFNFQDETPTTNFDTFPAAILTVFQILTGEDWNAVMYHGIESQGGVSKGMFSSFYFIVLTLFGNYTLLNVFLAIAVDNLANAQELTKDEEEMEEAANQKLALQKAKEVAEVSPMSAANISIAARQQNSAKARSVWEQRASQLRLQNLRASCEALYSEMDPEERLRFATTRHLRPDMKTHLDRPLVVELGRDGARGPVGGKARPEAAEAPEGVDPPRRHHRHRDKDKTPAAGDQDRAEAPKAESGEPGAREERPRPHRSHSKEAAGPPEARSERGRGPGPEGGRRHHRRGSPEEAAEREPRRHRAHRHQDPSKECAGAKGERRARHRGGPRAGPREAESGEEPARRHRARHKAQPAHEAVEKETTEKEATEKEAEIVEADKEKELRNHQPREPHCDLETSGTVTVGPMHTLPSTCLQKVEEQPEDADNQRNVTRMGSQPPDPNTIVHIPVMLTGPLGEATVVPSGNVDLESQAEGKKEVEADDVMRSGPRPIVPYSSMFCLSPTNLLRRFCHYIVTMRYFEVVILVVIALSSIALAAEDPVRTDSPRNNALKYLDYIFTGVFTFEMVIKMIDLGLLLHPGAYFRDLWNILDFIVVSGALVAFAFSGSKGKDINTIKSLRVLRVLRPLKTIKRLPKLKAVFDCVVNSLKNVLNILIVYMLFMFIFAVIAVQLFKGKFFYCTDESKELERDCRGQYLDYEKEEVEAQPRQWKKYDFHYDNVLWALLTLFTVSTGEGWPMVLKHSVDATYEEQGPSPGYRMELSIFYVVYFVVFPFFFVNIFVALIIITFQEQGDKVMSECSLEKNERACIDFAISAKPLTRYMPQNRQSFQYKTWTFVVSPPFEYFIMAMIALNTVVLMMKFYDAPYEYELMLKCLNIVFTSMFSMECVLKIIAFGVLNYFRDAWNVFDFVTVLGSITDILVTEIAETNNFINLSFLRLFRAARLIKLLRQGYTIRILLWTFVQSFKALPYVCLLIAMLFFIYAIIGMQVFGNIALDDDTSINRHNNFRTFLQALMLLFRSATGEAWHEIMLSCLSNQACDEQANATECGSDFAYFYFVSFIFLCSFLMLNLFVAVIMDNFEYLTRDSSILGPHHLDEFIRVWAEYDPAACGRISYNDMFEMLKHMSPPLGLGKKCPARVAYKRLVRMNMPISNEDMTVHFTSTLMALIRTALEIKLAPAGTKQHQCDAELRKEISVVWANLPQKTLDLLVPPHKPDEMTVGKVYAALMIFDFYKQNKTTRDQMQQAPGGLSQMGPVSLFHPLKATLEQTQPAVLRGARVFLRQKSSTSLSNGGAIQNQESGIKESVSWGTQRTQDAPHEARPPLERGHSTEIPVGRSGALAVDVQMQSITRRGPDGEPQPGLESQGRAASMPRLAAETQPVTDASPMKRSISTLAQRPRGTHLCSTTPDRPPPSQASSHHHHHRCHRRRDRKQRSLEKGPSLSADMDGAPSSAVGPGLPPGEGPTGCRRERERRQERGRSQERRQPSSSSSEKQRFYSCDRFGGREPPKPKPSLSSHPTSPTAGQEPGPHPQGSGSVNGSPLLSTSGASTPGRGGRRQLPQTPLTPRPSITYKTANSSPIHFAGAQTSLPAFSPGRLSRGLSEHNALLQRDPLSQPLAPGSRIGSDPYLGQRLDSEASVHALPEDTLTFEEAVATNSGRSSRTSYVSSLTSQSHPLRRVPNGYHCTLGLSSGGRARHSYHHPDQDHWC
T2 sequence (Q02410 whole entry): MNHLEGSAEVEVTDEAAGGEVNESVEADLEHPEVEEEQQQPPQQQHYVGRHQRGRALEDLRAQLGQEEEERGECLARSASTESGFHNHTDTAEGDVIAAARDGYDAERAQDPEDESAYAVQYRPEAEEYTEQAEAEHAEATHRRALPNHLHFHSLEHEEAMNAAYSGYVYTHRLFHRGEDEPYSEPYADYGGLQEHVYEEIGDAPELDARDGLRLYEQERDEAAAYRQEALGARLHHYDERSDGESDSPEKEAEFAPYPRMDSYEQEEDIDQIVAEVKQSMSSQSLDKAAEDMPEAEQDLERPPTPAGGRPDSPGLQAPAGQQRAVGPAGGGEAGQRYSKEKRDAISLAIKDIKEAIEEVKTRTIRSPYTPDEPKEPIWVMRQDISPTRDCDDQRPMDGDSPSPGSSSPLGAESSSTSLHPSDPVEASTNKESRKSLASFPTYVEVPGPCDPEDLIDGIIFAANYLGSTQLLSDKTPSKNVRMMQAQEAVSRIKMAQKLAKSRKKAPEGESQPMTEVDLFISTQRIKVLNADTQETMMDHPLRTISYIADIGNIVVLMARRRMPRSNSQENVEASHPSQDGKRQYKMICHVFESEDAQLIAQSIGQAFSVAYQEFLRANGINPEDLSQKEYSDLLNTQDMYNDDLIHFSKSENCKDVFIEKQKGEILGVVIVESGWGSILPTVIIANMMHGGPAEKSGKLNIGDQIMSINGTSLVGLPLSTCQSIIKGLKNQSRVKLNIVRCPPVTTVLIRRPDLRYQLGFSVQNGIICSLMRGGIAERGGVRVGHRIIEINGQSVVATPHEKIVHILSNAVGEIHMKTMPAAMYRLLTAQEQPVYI

As to `Cc1cc(C)cc(N(C(=O)c2snc(C(N)=O)c2N)C(C(=O)NCC2CCCO2)c2cccs2)c1` (configuration not stated), the IC50 (as a rule, the concentration that inhibits the measured activity by half) in test [1] is > 20 µM (inactive).
Turning to `Cc1cccc2c3c(ccc12)C1=C(C(=O)C3=O)C(C)CO1` (configuration not stated), the AC50 (usually the concentration giving half of the maximal activity seen) at Cytochrome P450 3A4 is 12.6 µM (inconclusive).
For `O=c1cc(CO)oc(C(Nc2cccc(C(F)(F)F)c2)c2ccccn2)c1O` (configuration not stated), the IC50 in [2] was 8.71 µM (active); in test [3] it was 1.09 µM (active); in test [1], > 20 µM (inactive).
For the molecule `O=C1C(Cl)=C(N2CCN(CCO)CC2)C(=O)N1c1ccc(C(F)(F)F)cc1`, the IC50 in [4] is > 50 µM (inconclusive).
For the molecule `CC1(C)C(O)CC[C@]2(C)C1CC[C@@]1(C)C2C(=O)C=C2[C@@H]3C[C@@](C)(C(=O)O)CC[C@@]3(C)CCC21C` (some centres not stated), the AC50 on Cytochrome P450 3A4 is 39.8 µM (inconclusive).
As for `COc1ccccc1NC(=O)c1cc(S(=O)(=O)NCc2ccccc2)ccc1F`, the IC50 in test [1] is > 20 µM (inactive).
On to `COC(=O)c1cc(Nc2cc(C)c3c(O)cccc3n2)cc(C(=O)OC)c1`, for which the CC50 (commonly the concentration at which the toxic effect on the cells reaches its halfway point) in [5] is 44.4 µM (active). Besides, the IC50 in the test “cells” was > 50 µM (active).
Take `COc1ccc(C(=O)CC(=O)c2c(O)cc(OC)cc2OC)cc1`: the AC50 at Cytochrome P450 3A4 was 3.98 µM (inconclusive).
On to `COc1ccc(-n2c(C)cc(/C=C3\C(=N)N4N=C(CC(=O)N5CCOCC5)SC4=NC3=O)c2C)c(OC)c1`, for which the CC50 in [5] is 11.1 µM (active). For the same molecule, the IC50 in “cells” is 11.7 µM (active).
Take `COc1ccccc1CNC(=O)C1CCCN1S(=O)(=O)c1cccc2cccnc12` (configuration not stated): the IC50 in the test “cells” was 18.6 µM (active).
Consider `C=CCSc1nnc(NC(=O)c2nc(SCC)ncc2Cl)s1`, for which the IC50 on Leucine aminopeptidase is 10.8 µM (active); on Aminopeptidase N it was 94.3 µM (active).
As for `Cc1c(-c2ccc(OCc3ccccc3)cc2)nc2ccccc2c1C(=O)O`, in test [5], the CC50 was 42.6 µM (active). Moreover, the IC50 in the test “cells” is 24.7 µM (active).
Regarding `CCn1c(SCC(=O)Nc2nc(-c3ccccc3)cs2)nnc1-c1ccccc1`, the concentration giving a half-maximal response (EC50) (as a rule, the concentration at which the effect is half-maximal) in the test on HEK293 [6] is 7.28 µM (active); in test [9], 7.91 µM (active). Besides, the IC50 with HEK293 [7] was 6.13 µM (active); with HEK293 [8], 11.3 µM (active); with HEK293 [10], 5.74 µM (active); in the test on HEK293 [11], > 20 µM (inactive).
For `Nc1nonc1-c1nc2ccccc2n1CC(=O)N/N=C/c1ccc(-c2ccccc2C(=O)O)o1`, the IC50 on Leucine aminopeptidase is 73.8 µM (active); at Aminopeptidase N, 82.7 µM (active).
On to `CCOC(=O)C1=C(COCCN)N=C(C)/C(=C(/O)OC)C1c1ccccc1Cl` (configuration not stated), for which the IC50 in test [1] is > 20 µM (inactive). For the same molecule, the CC50 in the test with Vero was > 25 µM (active).
For `C/C(CC(=O)Nc1cc(C)ccn1)=N\NC(=O)COc1cccc(C)c1`, on Leucine aminopeptidase, the IC50 is 90.2 µM (active). Besides, the AC50 in test [12] was 2.37 µM (active). For the same molecule, on Protein RecA, the EC50 was 1.54 µM (active).
Regarding `CCN(CC)C(=O)c1cc(-c2ccc(Cl)cc2Cl)n[nH]1`, the IC50 in test [4] was > 10 µM (inconclusive).

These data come from ChEMBL document CHEMBL1201862, “PubChem BioAssay data set” (2004).
